Source: PubChem BioAssay AID732 (Emory University Molecular Libraries Screening Center, 2007)
Values joined by “and” are separate entries in the source; they are usually repeats but may differ in a detail not shown here. Identical values can stand only once. Active and inactive are the calls of the source. The rule behind the calls is not given here.

The molecules below were run on in vivo angiogenesis, blood vessel count (assay: reduction of blood vessel formation in vivo – HTS, in vivo study (AID 732;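 note: zebrafish embryos dosed at one day post fertilization; 0% = reference inhibitor and 100% = plate mean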)). Settings: hits give low values;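 tested at 30 µM in the well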.

| SMILES | vessel count % control |
| --- | --- |
| C[C@]12CCC(=O)C=C1CC[C@@H]1[C@@H]2[C@@H](O)C[C@@]2(C)[C@H]1CC[C@]2(O)C(=O)COC(=O)CCC(=O)O | 98.7% (inactive) |
| O=C1C=CC(=O)C=C1 | 84.8% (inactive) |
| Cn1cnc2c1c(=O)[nH]c(=O)n2C | 118% (inactive) |
| CCN(c1nc(N)c(C(=O)N=C(N)N)nc1Cl)C(C)C | 73.9% (inactive) |
| NC(C(=O)O)c1cc(=O)[nH]o1 (stereo not drawn) | 134% (inactive) |
| CC(C)(CO)Cc1cc(C(C)(C)C)c(O)c(C(C)(C)C)c1 | 105% (inactive) |
| CC(C)(C)[C@]1(O)CCN2C[C@H]3c4ccccc4CCc4cccc(c43)[C@@H]2C1 | 71.1% (inactive) and 90% (inactive) |
| Oc1ccc2c3c1O[C@H]1c4oc5ccccc5c4C[C@@]4(O)C(C2)N(CC2CC2)CCC314 (stereo partly drawn) | 93.1% (inactive) |
| O=C(c1cc(O)c(O)c([N+](=O)[O-])c1)c1ccccc1F | 116% (inactive) |
| CCCN1CCC[C@@H](c2cccc(C#N)c2)C1 | 103% (inactive) |
| C[C@@H](NCCc1ccc(O)cc1)[C@@H](O)c1ccc(O)cc1 | 92.9% (inactive) |
| CC(C)NCC(O)c1cc(O)cc(O)c1 (stereo not drawn) | 91.8% (inactive) |
| O=C(O)c1ccccc1Nc1cccc(OCc2ccc3ccccc3n2)c1 | 85.3% (inactive) |
| COc1nc(C)nc(Cl)c1NC1=NCCN1 | 81.3% (inactive) |
| CCCCC#Cc1nc(N)c2ncn([C@@H]3O[C@H](C(=O)NCC)[C@@H](O)[C@H]3O)c2n1 | 110% (inactive) |
| Cc1nccc2c1[nH]c1ccccc12 | 86.1% (inactive) |
| NOCC(=O)O | 114% (inactive) |
| O=C(Nc1ccc([N+](=O)[O-])cc1Cl)c1cc(Cl)ccc1O | 0% (inactive) |
| CCNC(=O)[C@H]1O[C@@H](n2cnc3c(N)ncnc32)C(O)[C@H]1O (stereo partly drawn) | 110% (inactive) |

| SMILES | vessel count % control |
| --- | --- |
| CO/N=C(\C(=O)N[C@@H]1C(=O)N2C(C(=O)O)=C(CSc3nc(=O)c(O)nn3C)CSC12)c1csc(N)n1 (stereo partly drawn) | 117% (inactive) |
| NS(=O)(=O)c1cccc2c1c([N+](=O)[O-])cc1nc(O)c(O)nc12 | 111% (inactive) |
| CC(C[N+](C)(C)C)OC(N)=O (stereo not drawn) | 91.7% (inactive) |
| Cc1cccc(C)c1NC(=O)C[N+](C)(C)C | 87.6% (inactive) |
| CCCC(=O)NCCc1c2n(c3ccc(OC)cc13)Cc1ccccc1-2 | 111% (inactive) |
| CC(=O)O[C@H]1C[C@@H]2CC[C@@H]3[C@H](CC[C@@]4(C)[C@H]3C[C@H]([N+]3(C)CCCCC3)[C@@H]4OC(C)=O)[C@@]2(C)C[C@@H]1[N+]1(C)CCCCC1 | 98% (inactive) |
| O=C(c1ccccc1)c1ccc2n1CCC2C(=O)O (stereo not drawn) | 79.7% (inactive) |
| C[C@]12Cc3cn4c(nc3C=C1CCC1C2CC[C@@]2(C)[C@H]1CC[C@@]2(O)C#N)nc1ccccc14 (stereo partly drawn) | 97% (inactive) |
| CCCCCCCCC(=O)NCc1ccc(O)c(OC)c1 | 98.1% (inactive) |
| O=C1c2c(O)cc(O)cc2OC(c2ccc(O)c(O)c2)C1O (stereo not drawn) | 80.8% (inactive) |
| O=C1Nc2ccc(I)cc2/C1=C/c1cc(Br)c(O)c(Br)c1 | 69.8% (inactive) |
| O=C(O)/C=C/c1ccc(O)c(O)c1 | 108% (inactive) |
| OC[C@H]1NC[C@@H](O)[C@@H]1O | 96% (inactive) |
| CCCCS(=N)(=O)CC[C@H](N)C(=O)O (stereo partly drawn) | 93% (inactive) |
| CN(C)CCC=C1c2ccccc2C=Cc2ccccc21 | 82.4% (inactive) |
| CN1CCN(CC/C=C2/c3ccccc3Sc3ccc(S(=O)(=O)N(C)C)cc32)CC1 | 98.3% (inactive) |
| COC1(C2=NCCN2)COc2ccccc2O1 (stereo not drawn) | 121% (inactive) |
| CCCN(CCC)CCc1ccc(O)c(O)c1 | 86.9% (inactive) |
| O=C(O)Cc1c[nH]c2ccc(O)cc12 | 92.5% (inactive) |
